26 compounds from patent US20240150334A1, “HSD17B13 INHIBITORS AND/OR DEGRADERS” (Pfizer Inc., priority 2022, published 2024) can be followed below.

Where a name gives a salt, the structure may show the parent alone.

Chain of wild type human HSD17B13 (Q7Z5P4 20-300): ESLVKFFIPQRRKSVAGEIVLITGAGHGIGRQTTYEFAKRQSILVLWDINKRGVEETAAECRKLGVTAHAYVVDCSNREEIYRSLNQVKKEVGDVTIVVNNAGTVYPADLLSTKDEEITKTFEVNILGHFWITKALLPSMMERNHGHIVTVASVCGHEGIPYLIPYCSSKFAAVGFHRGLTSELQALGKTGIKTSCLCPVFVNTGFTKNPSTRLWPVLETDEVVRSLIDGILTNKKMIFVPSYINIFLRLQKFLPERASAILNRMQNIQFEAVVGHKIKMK

This assay concerns the target wild type human HSD17B13 (Homo sapiens (Human), UniProt Q7Z5P4). The experiment in a line: HEK_Beta-Est LCMS_IC50_Tekcel, whole-cell HEK-HSD17B13 inhibition assay, estrone production by LCMS. Format: cell-based. Particulars: geometric mean, HEK cells stably expressing wild type human HSD17B13, 25 μM FAC beta-estradiol, read-out: HEK_Beta-Est LCMS_IC50—Tekcel GMean IC50. The protocol:
HEK_Beta-Est LCMS_IC50_Tekcel
Inhibition potency of test compounds was determined using a whole-cell HEK-HSD17B13 inhibition assay, utilizing a LCMS readout.
HSD17B13 uses the oxidized form of nicotinamide adenine dinucleotide (NAD+) as a cofactor during metabolism of beta-estradiol (substrate), converting NAD+ to the reduced form (NADH) and beta-estradiol to its product (estrone). Estrone production is quantified by LCMS, and used as a measure of HSD17B13 enzyme activity.
([…]: 5% CO2). […] Growth media was then removed from the cell plates and replaced with 10 μL of 2×FAC test compound, and incubated for 1 hour (with lid) at 37° C. […] The reaction was incubated for 2 hours (with lid) at 37° C. […] Amount of product (estrone) was then quantified by LCMS. Data expressed as product area ratio (PAR) were then normalized to control wells using Activity Base (IDBS). Zero percent effect (ZPE) was defined as PAR generated from uninhibited HSD17B13 (vehicle control).
For orientation: IC50 means the concentration that gives 50% inhibition. `O=C(NC[C@H]1CC[C@H](n2cc3cnc(-c4cccnc4)cc3n2)CC1)c1cc(F)c(O)c(F)c1` [Example 189, 3,5-difluoro-4-hydroxy-N-({(1r,4r)-4-[6-(pyridin-3-yl)-2H-pyrazolo[4,3-c]pyridin-2-yl]cyclohexyl}methyl) benzamide]: the IC50 worked out at 430 nM.
Next, `O=C(NC[C@H]1CC[C@H](n2cc3ccc(-c4ccsn4)cc3n2)CC1)c1cc(F)c(O)c(F)c1` [Example 98, 3,5-difluoro-4-hydroxy-N-({(1r,4r)-4-[6-(1,2-thiazol-3-yl)-2H-indazol-2-yl]cyclohexyl}methyl) benzamide]: 110 nM.
For the compound `Cc1ccn(-c2ccc3cn([C@H]4CC[C@H](CNC(=O)c5cc(F)c(O)c(F)c5F)CC4)nc3c2)n1` [Example 162, 2,3,5-trifluoro-4-hydroxy-N-({(1r,4r)-4-[6-(3-methyl-1H-pyrazol-1-yl)-2H-indazol-2-yl]cyclohexyl}methyl) benzamide], the IC50 is 310 nM.
In the case of `O=C(NC[C@]12CC[C@@](n3cc4ccc(-c5ncccn5)cc4n3)(CC1)CC2)c1cc(F)c(O)c(F)c1F` [Example 7, 2,3,5-Trifluoro-4-hydroxy-N-({4-[6-(pyrimidin-2-yl)-2H-indazol-2-yl]bicyclo[2.2.2]octan-1-yl}methyl)benzamide], the IC50 was determined as 180 nM.
Take `O=C(NC[C@H]1CC[C@H](n2cc3ccc(-n4cncn4)cc3n2)CC1)c1cc(F)c(O)c(F)c1F` [Example 165, 2,3,5-trifluoro-4-hydroxy-N-({(1r,4r)-4-[6-(1H-1,2,4-triazol-1-yl)-2H-indazol-2-yl]cyclohexyl}methyl) benzamide]: the IC50 is 420 nM.
The figure for `Cc1nsc(-c2ccc3cn([C@H]4CC[C@H](CNC(=O)c5cc(F)c(O)c(F)c5)CC4)nc3c2)n1` [Example 107, 3,5-difluoro-4-hydroxy-N-({(1r,4r)-4-[6-(3-methyl-1,2,4-thiadiazol-5-yl)-2H-indazol-2-yl]cyclo-hexyl}methyl) benzamide] is 160 nM; for `COc1cc(-c2ccc3cn([C@H]4CC[C@H](CNC(=O)c5cc(F)c(O)c(F)c5)CC4)nc3c2)ccn1` [Example 106, 3,5-difluoro-4-hydroxy-N-({(1r,4r)-4-[6-(2-methoxypyridin-4-yl)-2H-indazol-2-yl]cyclohexyl}methyl) benzamide, trifluoroacetate salt] it is 150 nM.
On to `O=C(NC[C@H]1CC[C@H](n2cc3cc(-c4cncnc4)ccc3n2)CC1)c1cc(F)c(O)c(F)c1` [Example 157, 3,5-difluoro-4-hydroxy-N-({(1r,4r)-4-[5-(pyrimidin-5-yl)-2H-indazol-2-yl]cyclohexyl}methyl) benzamide, trifluoroacetate salt], for which the IC50 was 270 nM.
Next, `O=C(NC[C@H]1CC[C@H](n2cc3ccc(-c4cnn(C(CO)CCl)c4)cc3n2)CC1)c1cc(F)c(O)c(F)c1` (some centres unmarked) [Example 164, N-{[(1r,4r)-4-{6-[1-(1-chloro-3-hydroxypropan-2-yl)-1H-pyrazol-4-yl]-2H-indazol-2-yl}cyclohexyl]methyl}-3,5-difluoro-4-hydroxybenzamide, trifluoroacetate salt]: 230 nM.
The figure for `O=C(NC[C@H]1CC[C@H](n2cc3ccc(-c4cnn(CCO)c4)cc3n2)CC1)c1cc(F)c(O)c(F)c1` [Example 160, 3,5-difluoro-4-hydroxy-N-{[(1r,4r)-4-{6-[1-(2-hydroxyethyl)-1H-pyrazol-4-yl]-2H-indazol-2-yl}cyclo-hexyl]methyl} benzamide, trifluoroacetate salt] is 400 nM; for `O=C(NC[C@H]1CC[C@H](n2cc3cc(OCc4cccc(C(F)(F)F)n4)ncc3n2)CC1)c1cc(F)c(O)c(F)c1` [Example 33, 3,5-difluoro-4-hydroxy-N-{[(1r,4r)-4-(5-{[6-(trifluoromethyl)pyridin-2-yl]methoxy}-2H-pyrazolo[3,4-c]pyridin-2-yl)cyclohexyl]methyl}benzamide] it is 380 nM; for `O=C(NC[C@H]1CC[C@H](n2cc3cc(-c4cscn4)ccc3n2)CC1)c1cc(F)c(O)c(F)c1` [Example 155, 3,5-difluoro-4-hydroxy-N-({(1r,4r)-4-[5-(1,3-thiazol-4-yl)-2H-indazol-2-yl]cyclohexyl}methyl) benzamide] it is 120 nM.
Next, `O=C(NC[C@H]1CC[C@H](n2cc3cc(-c4cnn(C(F)F)c4)ccc3n2)CC1)c1cc(F)c(O)c(F)c1F` [Example 161, N-{[(1r,4r)-4-{5-[1-(difluoromethyl)-1H-pyrazol-4-yl]-2H-indazol-2-yl}cyclo-hexyl]methyl}-2,3,5-trifluoro-4-hydroxy-benzamide]: 180 nM.
`O=C(NC[C@H]1CC[C@H](n2cc3cc(-c4ncccn4)ccc3n2)CC1)c1cc(F)c(O)c(F)c1` [Example 154, 3,5-difluoro-4-hydroxy-N-({(1r,4r)-4-[5-(pyrimidin-2-yl)-2H-indazol-2-yl]cyclohexyl}methyl) benzamide]: the IC50 was 110 nM.
On to `O=C(NC[C@H]1CC[C@H](n2cc3ccc(-c4ncc5c(n4)COC5)cc3n2)CC1)c1cc(F)c(O)c(F)c1` [Example 101, N-({(1r,4r)-4-[6-(5,7-dihydrofuro[3,4-d]pyrimidin-2-yl)-2H-indazol-2-yl]cyclohexyl}methyl)-3,5-difluoro-4-hydroxybenzamide], for which the IC50 was 140 nM.
Next, `O=C(NC[C@H]1CC[C@H](n2cc3ccc(-n4ccnc4)cc3n2)CC1)c1cc(F)c(O)c(F)c1F` [Example 166, 2,3,5-trifluoro-4-hydroxy-N-({(1r,4r)-4-[6-(1H-imidazol-1-yl)-2H-indazol-2-yl]cyclohexyl}methyl) benzamide, trifluoroacetate salt]: 410 nM.
Turning to `O=C(NC[C@H]1CC[C@H](n2cc3ccc(-c4nccs4)cc3n2)CC1)c1cc(F)c(O)c(F)c1` [Example 110, 3,5-difluoro-4-hydroxy-N-({(1r,4r)-4-[6-(1,3-thiazol-2-yl)-2H-indazol-2-yl]cyclohexyl}methyl) benzamide], the IC50 worked out at 110 nM.
The figure for `O=C(NC[C@H]1CC[C@H](c2cn3cc(-c4cnn(C(F)F)c4)ccc3n2)CC1)c1cc(F)c(O)c(F)c1F` [Example 167, N-{[(1r,4r)-4-{6-[1-(difluoromethyl)-1H-pyrazol-4-yl]imidazo [1,2-a]pyridin-2-yl}cyclohexyl]methyl}-2,3,5-trifluoro-4-hydroxy-benzamide, trifluoroacetate salt] is 200 nM.
The figure for `O=C(NC[C@H]1CC[C@H](c2nc(-c3cnc(C(F)(F)F)cn3)no2)CC1)c1cc(F)c(O)c(F)c1F` [Example 148, 2,3,5-trifluoro-4-hydroxy-N-{[(1r,4r)-4-{3-[5-(trifluoromethyl)pyrazin-2-yl]-1,2,4-oxadiazol-5-yl}cyclohexyl]methyl} benzamide] is 470 nM; for `O=C(NC[C@]12CC[C@@](c3nc(-c4ncc(C(F)(F)F)cn4)no3)(CC1)CC2)c1cc(F)c(O)c(F)c1F` [Example 3, 2,3,5-Trifluoro-4-hydroxy-N-[(4-{3-[5-(trifluoromethyl)pyrimidin-2-yl]-1,2,4-oxadiazol-5-yl}bicyclo[2.2.2]octan-1-yl)methyl]benzamide] it is 130 nM.
Turning to `Cc1cc(-c2ccc3cn([C@H]4CC[C@H](CNC(=O)c5cc(F)c(O)c(F)c5)CC4)nc3c2)ncn1` [Example 87, 3,5-difluoro-4-hydroxy-N-({(1r,4r)-4-[6-(6-methylpyrimidin-4-yl)-2H-indazol-2-yl]cyclohexyl}methyl) benzamide], the IC50 stood at 130 nM.
The figure for `O=C(NC[C@H]1CC[C@H](n2cc3ccc(-c4cccn5ncnc45)cc3n2)CC1)c1cc(F)c(O)c(F)c1` [Example 113, 3,5-difluoro-4-hydroxy-N-({(1r,4r)-4-[6-([1,2,4]triazolo[1,5-a]pyridin-8-yl)-2H-indazol-2-yl]cyclohexyl}methyl) benzamide, trifluoroacetate salt] is 320 nM; for `COc1nc(-c2ccc3cn([C@H]4CC[C@H](CNC(=O)c5cc(F)c(O)c(F)c5)CC4)nc3c2)nn1C` [Example 86, 3,5-difluoro-4-hydroxy-N-({(1r,4r)-4-[6-(5-methoxy-1-methyl-1H-1,2,4-triazol-3-yl)-2H-indazol-2-yl]cyclohexyl}methyl) benzamide] it is 270 nM.
On to `O=C(NC[C@H]1CC[C@H](n2cc3ccc(-c4cn5ccccc5n4)cc3n2)CC1)c1cc(F)c(O)c(F)c1` [Example 103, 3,5-difluoro-4-hydroxy-N-({(1r,4r)-4-[6-(imidazo[1,2-a]pyridin-2-yl)-2H-indazol-2-yl]cyclohexyl}methyl) benzamide, trifluoroacetate salt], for which the IC50 turned out to be 360 nM.
In the case of `O=C(NC[C@H]1CC[C@H](n2cc3ccc(-c4ccn5ncnc5c4)cc3n2)CC1)c1cc(F)c(O)c(F)c1` [Example 119, 3,5-difluoro-4-hydroxy-N-({(1r,4r)-4-[6-([1,2,4]triazolo[1,5-a]pyridin-7-yl)-2H-indazol-2-yl]cyclo-hexyl}methyl) benzamide, trifluoroacetate salt], the IC50 was 150 nM.
With `O=C(NC[C@H]1CC[C@H](n2cc3ccc(-c4ccn5ccnc5c4)cc3n2)CC1)c1cc(F)c(O)c(F)c1` [Example 117, 3,5-difluoro-4-hydroxy-N-({(1r,4r)-4-[6-(imidazo[1,2-a]pyridin-7-yl)-2H-indazol-2-yl]cyclohexyl}methyl) benzamide, trifluoroacetate salt], the IC50 came out at 180 nM.
